Here are results for 4 compounds from patent US8410135B2, “4,5 dihydro-(1H)-pyrazole derivatives as cannabinoid CB1 receptor modulators” (Solvay Pharmaceuticals B.V., priority 2007, dated 2013).

Where two headings read alike, the source gives them in different places.

Assay [1] has as its target T1, human cannabinoid CB2 receptors (Homo sapiens, UniProt P34972).
T1 construct: expressed in transfected cells
Kind of assay: In vitro affinity for cannabinoid-CB2 receptors ([3H]CP-55,940 radioligand binding, CHO cell membranes). As for the experimental part: In vitro affinity for cannabinoid-CB2 receptors: was determined using membrane preparations of CHO cells in which human cannabinoid CB2 receptors were stably transfected in conjunction with [^3H]CP-55,940 as radioligand. After incubation of a freshly prepared cell membrane preparation with the [^3H]-ligand, with or without addition of compounds of the invention, separation of bound and free ligand was performed by filtration over glassfiber filters. Radioactivity on the filter was measured by liquid scintillation counting.

Assay [2] deals with T2, human cannabinoid CB1 receptors (Homo sapiens, UniProt P21554).
T2 construct: expressed in transfected cells
T2 sequence (P21554 whole entry): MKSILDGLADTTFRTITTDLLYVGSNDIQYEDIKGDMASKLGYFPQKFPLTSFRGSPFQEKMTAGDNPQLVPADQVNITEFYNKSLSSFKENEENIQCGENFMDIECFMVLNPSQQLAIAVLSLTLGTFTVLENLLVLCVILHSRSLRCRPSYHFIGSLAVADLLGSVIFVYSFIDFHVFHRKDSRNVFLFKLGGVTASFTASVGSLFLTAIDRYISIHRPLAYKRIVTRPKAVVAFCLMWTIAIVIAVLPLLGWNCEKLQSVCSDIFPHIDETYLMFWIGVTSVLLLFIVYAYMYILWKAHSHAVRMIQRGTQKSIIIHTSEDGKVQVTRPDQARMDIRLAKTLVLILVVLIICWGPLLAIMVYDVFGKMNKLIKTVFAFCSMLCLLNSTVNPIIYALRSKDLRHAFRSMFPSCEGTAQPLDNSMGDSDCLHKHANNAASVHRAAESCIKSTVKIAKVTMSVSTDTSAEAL
Kind of assay: In vitro affinity for cannabinoid-CB1 receptors ([3H]CP-55,940 radioligand binding, CHO cell membranes). Here is the method: In vitro affinity for cannabinoid-CB1 receptors was determined using membrane preparations of CHO cells in which human cannabinoid CB1 receptors were stably transfected in conjunction with [^3H]CP-55,940 as radioligand. After incubation of a freshly prepared cell membrane preparation with the [^3H]-ligand, with or without addition of compounds of the invention, separation of bound and free ligand was performed by filtration over glassfiber filters. Radioactivity on the filter was measured by liquid scintillation counting.

Another assay concerns the target T3, human CB1 receptors (Homo sapiens, UniProt P21554).
T3 construct: expressed in transfected cells; host or cells: CHO cells
The experiment in a line: In vitro cannabinoid-CB1 receptor (ant)agonism, [3H]-arachidonic acid release in CHO cells. In kind it is cell-based. As for the experimental part:
In vitro cannabinoid-CB1 receptor (ant)agonism was assessed with human CB1 receptors cloned in CHO cells. CHO cells were grown in a DMEM culture medium, supplemented with 10% heat-inactivated fetal calf serum. Medium was aspirated and replaced by DMEM, without fetal calf serum, but containing [^3H]-arachidonic acid and incubated overnight in a cell culture stove (5% CO2/95% air; 37° C.; water-saturated atmosphere). During this period [^3H]-arachidonic acid was incorporated in membrane phospholipids. On the test day, medium was aspirated and cells were washed three times using 0.5 ml DMEM, containing 0.2% BSA. CB1 agonist stimulation lead to activation of PLA2 followed by release of [^3H]-arachidonic acid into the medium. This CB1 agonist-induced release was concentration-dependently antagonized by CB1 receptor antagonists, such as rimonabant.

The mark [3] stands for this setting: membranes of CHO cells stably transfected with human CB2, radioligand [3H]CP-55,940, mean of at least three independent experiments, read-out: receptor binding Human CB2 [^3H]-CP-55,940 pKi (converted).
Where [4] appears, read: membranes of CHO cells stably transfected with human CB1, radioligand [3H]CP-55,940, mean of at least three independent experiments, read-out: receptor binding Human CB1 [^3H]-CP-55,940 pKi (converted).
[5] abbreviates: human CB1 receptors cloned in CHO cells, [3H]-arachidonic acid release.

T3 sequence (P21554 whole entry): as above
T1 sequence (P34972 whole entry): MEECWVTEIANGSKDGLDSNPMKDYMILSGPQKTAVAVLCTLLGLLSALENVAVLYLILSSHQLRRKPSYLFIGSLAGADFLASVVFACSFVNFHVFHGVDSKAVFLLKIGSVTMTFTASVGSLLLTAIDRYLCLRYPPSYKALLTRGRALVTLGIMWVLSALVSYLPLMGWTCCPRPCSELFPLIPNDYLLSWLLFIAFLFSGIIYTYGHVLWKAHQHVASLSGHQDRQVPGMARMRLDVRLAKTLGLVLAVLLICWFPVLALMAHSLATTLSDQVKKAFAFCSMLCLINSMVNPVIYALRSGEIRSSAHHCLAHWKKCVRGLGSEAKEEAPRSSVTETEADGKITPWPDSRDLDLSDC

As to `CCCCC1=NN(C(=O)NC(C)(C)c2ccccc2)C(C)(C)C1c1ccccc1` (stereo not drawn) [Compound 1, N-(1-methyl-1-phenyl-ethyl)-3-(n-butyl)-5,5-dimethyl-4-phenyl-4,5-dihydro-(1H)-pyrazole-1-carboxamide], the Ki in assay [1] (setting [3]) was 3.98 nM; in assay [2] (setting [4]), 7.94 nM. For the same compound, on human CB1 receptors (setting [5]), the “functional activity h-CB1 agonistic activity [^3H]-Arachidonic acid pEC50” value was 8.1.
Consider `CCCCC1=NN(C(=O)N[C@H]2C[C@H]3CC[C@]2(C)C3(C)C)C(C)(C)C1c1ccccc1` (stereo partly drawn) [Compound 2, N-[Endo-(1R,2S,4R)-1,7,7-trimethylbicyclo[2.2.1]hept-2-yl]-3-(n-butyl)-5,5-dimethyl-4-phenyl-4,5-dihydro-(1H)-pyrazole-1-carboxamide], for which the Ki in assay [1] is 3.98 nM; in assay [2] it was 12.6 nM. Further, the “functional activity h-CB1 agonistic activity [^3H]-Arachidonic acid pEC50” value on human CB1 receptors (setting [5]) was determined as 7.4.
Turning to `CCCCC1=NN(C(=O)N[C@@H]2C[C@H]3CC[C@H]2C3)C(C)(C)C1c1ccccc1` (relative stereo) [Compound 19, N-(rel-exo-bicyclo[2.2.1]hept-2-yl)-3-(n-butyl)-5,5-dimethyl-4-phenyl-4,5-dihydro-(1H)-pyrazole-1-carboxamide], the Ki in assay [1] is 7.94 nM; in assay [2], 25.1 nM. This compound showed an EC50 at human CB1 receptors of 100 nM.
As to `CCCCC1=NN(C(=O)CC(C)CC(C)(C)C)C(C)(C)C1c1ccccc1` (mixture of isomers) [Compound 39, [3-(n-butyl)-5,5-dimethyl-4-phenyl-4,5-dihydro-(1H)-pyrazol-1-yl]-3,5,5-trimethylhexan-1-one], the Ki in assay [1] (setting [3]) was 12.6 nM; in assay [2] (setting [4]) it was 100 nM. Moreover, the EC50 at human CB1 receptors (human CB1 receptors cloned in CHO cells, [3H]-arachidonic acid release, read-out: functional activity h-CB1 agonistic activity [^3H]-Arachidonic acid pEC50 (converted)) was 63.1 nM.
